According to article PMC7307922 (Journal of Medicinal Chemistry, 2020):
pEC50: −log10 of the molar value. Counter-ions that a name gives are not always drawn. Like-named read-outs stand apart in the source and are kept apart here.

How the values were obtained:
hFFA3 [1] = biological target: T1, hFFA3 (Homo sapiens, UniProt O14843); experiment: cell-based; settings: for Emax: HEK293, read-out: cAMP Emax; for PAM pEC50: cAMP assay in the presence of 1 μM propionate; for cAMP pEC50: compound alone, mean of ≥3 independent experiments ± standard error; for lower potency in cAMP assay versus GTPγS assay / increased potency in cAMP assay versus GTPγS assay: cAMP vs GTPγS data
T1 sequence (O14843 1-346): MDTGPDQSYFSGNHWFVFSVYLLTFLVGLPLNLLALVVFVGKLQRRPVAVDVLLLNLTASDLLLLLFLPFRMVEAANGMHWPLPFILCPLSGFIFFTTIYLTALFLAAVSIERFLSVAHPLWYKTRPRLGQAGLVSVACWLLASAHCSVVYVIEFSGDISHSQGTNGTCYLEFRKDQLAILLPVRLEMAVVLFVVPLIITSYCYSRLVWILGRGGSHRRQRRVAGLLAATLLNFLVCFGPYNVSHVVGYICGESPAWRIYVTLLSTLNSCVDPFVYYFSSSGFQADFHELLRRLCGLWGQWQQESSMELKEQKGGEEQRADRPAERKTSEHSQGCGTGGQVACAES
Experimental: (§1) The ligands were initially screened in a human FFA3-dependent [^35S]GTPγS binding assay as this assay reflects receptor-mediated activation of Gi/o proteins and is known to generally correlate well with ligand affinity.[30] Analogues of particular interest were tested further in a cAMP inhibition assay as this is an important downstream effect of Gi-activation. […] It is furthermore performed in whole cells, is more downstream, includes G protein signal amplification, and therefore better reflects a more natural ligand–receptor response.
HEK293 Flp-In T-Rex cells stably transfected with FFA3-eYFP receptors were incubated overnight with doxycycline to induce expression, then harvested, and cryopreserved. On the day of each experiment, cells were thawed and resuspended in stimulation buffer. Assays were carried out using a 384-well plate format with 3000 cells/well using the CisBio cAMP GS dynamic kit as per manufacturer’s protocol. Compounds were tested for the ability to inhibit 0.3 μM forskolin-induced cAMP production after co-incubation for 1 h. Reactions were measured using a PHERAstar FS plate reader (BMGLabtech, Aylesbury, UK).

hFFA3 [2] = biological target: T1, hFFA3; experiment: biochemical; settings: for GTPγS pEC50: hFFA3, mean of ≥3 independent experiments ± standard error; for Emax: read-out: GTPγS Emax
Experimental: as §1
Membranes were isolated from Flp-In T-REx HEK293 cells treated with 100 ng/mL doxycycline to induce receptor expression. Cells were washed with ice-cold phosphate-buffered saline and removed from dishes by scraping before being centrifuged for 5 min at 4 °C, 3000 rpm. Pellets were resuspended in TE buffer (75 mM Tris–HCl, 5 mM EDTA; pH 7.5) with the addition of a protease inhibitor mixture (Roche Applied Science, West Sussex, UK). This was then homogenized with a 5 mL hand-held homogenizer and subsequently centrifuged at 1500 rpm for 5 min at 4 °C, from which the supernatant was collected and further centrifuged at 50 000 rpm for 30 min at 4 °C. The resulting pellet was resuspended in TE buffer, and the protein content was measured using a BCA protein assay kit (Pierce, Fisher Scientific, Loughborough, UK).
Reactions were initiated with the addition of [^35S]GTPγS at 50 nCi per tube; reactions were terminated after 1 h of incubation at 25 °C by rapid filtration through GF/C glass filters using a 24-well Brandel cell harvester (Alpha Biotech, Glasgow, UK). Unbound radioligand was removed from filters by washing three times with ice-cold wash buffer (50 mM Tris–HCl, pH 7.4, and 10 mM MgCl2), and [^35S]GTPγS binding was determined by liquid scintillation spectrometry.

SMILES	Emax (hFFA3 [1])	cAMP pEC50 (hFFA3 [1]; hFFA3)	GTPγS pEC50 (hFFA3 [2])	Emax (hFFA3 [2])	other results
CC1=C(C(=O)Nc2ccccc2C)C(c2cccs2)C2=C(CCCC2=O)N1 (stereo not drawn) [Compound 4, 2-Methyl-5-oxo-4-(thiophen-2-yl)-N-(o-tolyl)-1,4,5,6,7,8-hexahydroquinoline-3-carboxamide]	102%	5.79 ± 0.04	5.52 ± 0.18	111%	PAM pEC50 (hFFA3 [1]): 5.92 ± 0.04
CC1=C(C(=O)Nc2cccc(C)c2C)C(CC(C)C)C2=C(CCCC2=O)N1 (stereo not drawn) [Compound 18, N-(2,3-Dimethylphenyl)-4-isobutyl-2-methyl-5-oxo-1,4,5,6,7,8-hexahydroquinoline-3-carboxamide]	97%	4.98 ± 0.11	5.26 ± 0.16	88%	lower potency in cAMP assay versus GTPγS assay (hFFA3 [1]): 2 fold
CC1=C(C(=O)Nc2ccccc2C)C(c2ccc(Br)cc2)C2=C(CCCC2=O)N1 (stereo not drawn) [Compound 7, 4-(4-Bromophenyl)-2-methyl-5-oxo-N-(o-tolyl)-1,4,5,6,7,8-hexahydroquinoline-3-carboxamide]	103%	5.79 ± 0.03	5.43 ± 0.09	85%	–
CC1=C(C(=O)Nc2ccccc2C)C(c2ccoc2)C2=C(CCCC2=O)N1 (stereo not drawn) [Compound 2, reference compound]	97%	6.27 ± 0.03	5.24 ± 0.08	135%	increased potency in cAMP assay versus GTPγS assay (hFFA3 [1]): 10 fold
CC1=C(C(=O)Nc2ccccc2Cl)C(CC(C)C)C2=C(CCCC2=O)N1 (stereo not drawn) [Compound 20, N-(2-Chlorophenyl)-4-isobutyl-2-methyl-5-oxo-1,4,5,6,7,8-hexahydroquinoline-3-carboxamide]	94%	6.15 ± 0.06	5.41 ± 0.13	105%	–
COc1ccccc1NC(=O)C1=C(C)NC2=C(C(=O)CCC2)C1c1ccco1 (stereo not drawn) [Compound 15, 4-(Furan-2-yl)-N-(2-methoxyphenyl)-2-methyl-5-oxo-1,4,5,6,7,8-hexahydroquinoline-3-carboxamide]	99%	6.43 ± 0.03	4.71 ± 0.28	124%	increased potency in cAMP assay versus GTPγS assay (hFFA3 [1]): 50 fold
CC1=C(C(=O)Nc2ccccc2C)C(c2cccc(Br)c2)C2=C(CCCC2=O)N1 (stereo not drawn) [Compound 6, 4-(3-Bromophenyl)-2-methyl-5-oxo-N-(o-tolyl)-1,4,5,6,7,8-hexahydroquinoline-3-carboxamide]	99%	5.87 ± 0.06	5.49 ± 0.08	89%	–
CC1=C(C(=O)Nc2ccccc2I)C(CC(C)C)C2=C(CCCC2=O)N1 (stereo not drawn) [Compound 19, N-(2-Iodophenyl)-4-isobutyl-2-methyl-5-oxo-1,4,5,6,7,8-hexahydroquinoline-3-carboxamide]	89%	–	5.41 ± 0.15	129%	pEC50 (hFFA3 [1]): 5.57
CC1=C(C(=O)Nc2ccccc2)C(c2ccco2)C2=C(CCCC2=O)N1 (stereo not drawn) [Compound 12]	97%	5.45 ± 0.03	5.11 ± 0.12	81%	drop in potency on replacement of o-tolyl (1) (hFFA3 [2]; relative to 1): > 3 fold
CC1=C(C(=O)Nc2c(F)cccc2F)C(CC(C)C)C2=C(CCCC2=O)N1 (stereo not drawn) [Compound 21, N-(2,6-Difluorophenyl)-4-isobutyl-2-methyl-5-oxo-1,4,5,6,7,8-hexahydroquinoline-3-carboxamide]	104%	4.98 ± 0.08	4.67 ± 0.22	89%	–
CC1=C(C(=O)Nc2ccccc2C)C(c2ccc(C)cc2)C2=C(CCCC2=O)N1 (stereo not drawn) [Compound 10, 2-Methyl-5-oxo-N-(o-tolyl)-4-(p-tolyl)-1,4,5,6,7,8-hexahydroquinoline-3-carboxamide]	97%	5.44 ± 0.04	4.52 ± 0.11	88%	–
CC1=C(C(=O)Nc2ccccc2C)C(CC(C)C)C2=C(CCCC2=O)N1 (stereo not drawn) [Compound 17, 4-Isobutyl-2-methyl-5-oxo-N-(o-tolyl)-1,4,5,6,7,8-hexahydroquinoline-3-carboxamide]	109%	5.00 ± 0.06	5.68 ± 0.13	109%	PAM pEC50 (hFFA3 [1]): 6.28 ± 0.14; lower potency in cAMP assay versus GTPγS assay (hFFA3 [1]): 5 fold
CC1=C(C(=O)Nc2ccccc2C)C(c2cccc(C(F)(F)F)c2)C2=C(CCCC2=O)N1 (stereo not drawn) [Compound 8, 2-Methyl-5-oxo-N-(o-tolyl)-4-(3-(trifluoromethyl)phenyl)-1,4,5,6,7,8-hexahydroquinoline-3-carboxamide]	98%	5.55 ± 0.05	4.81 ± 0.13	118%	–
CCc1ccc(C2C(C(=O)Nc3ccccc3C)=C(C)NC3=C2C(=O)CCC3)cc1 (stereo not drawn) [Compound 11, 4-(4-Ethylphenyl)-2-methyl-5-oxo-N-(o-tolyl)-1,4,5,6,7,8-hexahydroquinoline-3-carboxamide]	96%	5.17 ± 0.08	4.08 ± 0.26	143%	–
Cc1ccccc1NC(=O)c1c(C)nc2c(c1-c1ccco1)C(=O)CCC2 [Compound 24, 4-(Furan-2-yl)-2-methyl-5-oxo-N-(o-tolyl)-5,6,7,8-tetrahydroquinoline-3-carboxamide]	–	inactive and nr^c	–	–	PAM pEC50 (GTPγS assay) (hFFA3 [2]; GTPγS assay, with propionate): nr^c,d
CC1=C(C(=O)Nc2ccccc2C)C(c2ccc(C(F)(F)F)cc2)C2=C(CCCC2=O)N1 (stereo not drawn) [Compound 9, 2-Methyl-5-oxo-N-(o-tolyl)-4-(4-(trifluoromethyl)phenyl)-1,4,5,6,7,8-hexahydroquinoline-3-carboxamide]	101%	5.31 ± 0.06	5.12 ± 0.13	116%	–
CC1=C(C(=O)Nc2ccc(C)cc2)C(c2ccco2)C2=C(CCCC2=O)N1 (stereo not drawn) [Compound 14, 4-(Furan-2-yl)-2-methyl-5-oxo-N-(p-tolyl)-1,4,5,6,7,8-hexahydroquinoline-3-carboxamide]	100%	6.16 ± 0.03	5.27 ± 0.12	88%	–
CC1=C(C(=O)Nc2cc(Cl)ccc2Cl)C(CC2CCNCC2)C2=C(CCCC2=O)N1 (stereo not drawn) [Compound 53, N-(2,5-Dichlorophenyl)-2-methyl-5-oxo-4-(piperidin-4-ylmethyl)-1,4,5,6,7,8-hexahydroquinoline-3-carboxamide Hydrochloride]	–	nr^d	–	–	–
CC1=C(C#N)C(CC(C)C)C(C(=O)Nc2ccccc2C)=C(C)N1 (stereo not drawn) [Compound 27, 5-Cyano-4-isobutyl-2,6-dimethyl-N-(o-tolyl)-1,4-dihydropyridine-3-carboxamide]	–	3.99 ± 0.01	–	–	PAM pEC50 (hFFA3 [1]): 6.42 ± 0.09
CC1=C(C(=O)Nc2ccccc2C)C(C2CC2)C2=C(CCCC2=O)N1 (stereo not drawn) [Compound 33, 4-Cyclopropyl-2-methyl-5-oxo-N-(o-tolyl)-1,4,5,6,7,8-hexahydroquinoline-3-carboxamide]	102%	6.22 ± 0.10	–	–	pEC50 (hFFA3 [1]; read-out: EC50 (cAMP assay), hFFA3): 6.22
CC1=C(C(=O)Nc2ccccc2C)C(c2ccc(Br)o2)C2=C(CCCC2=O)N1 (stereo not drawn) [Compound 44, 4-(5-Bromofuran-2-yl)-2-methyl-5-oxo-N-(o-tolyl)-1,4,5,6,7,8-hexahydroquinoline-3-carboxamide]	95%	6.61 ± 0.02	–	–	–
CC1=C(C(=O)Nc2ccccc2C)[C@@H](c2ccco2)C2=C(CCCC2=O)N1 [(S)-1]	–	–	–	–	pEC50 (hFFA3 [1]): 5.70
CC1=C(C(=O)Nc2ccccc2C)C(c2ccc(C)o2)C2=C(CCCC2=O)N1 (stereo not drawn) [Compound 42, 2-Methyl-4-(5-methylfuran-2-yl)-5-oxo-N-(o-tolyl)-1,4,5,6,7,8-hexahydroquinoline-3-carboxamide]	100%	5.96 ± 0.03	–	–	–
